Source: article PMC4426668, “De novo synthesis of a sunscreen compound in vertebrates” (eLife, 2015)

Columns and labels:
Type in all cases: biochemical
[1] = target: T1, ValA (ShEEVS) (Streptomyces hygroscopicus, UniProt H2K887); experiment: TLC and GC-MS of product; details: positive control enzyme; 4 mM SH7P, 1 mM NAD+, 0.1 mM CoCl2 or ZnSO4, 20 mM Tris-HCl pH 7.5, 30 °C, 2 h
T1 construct: N-terminal His6 tag (pRSETB-valA), expressed in E. coli BL21 GOLD (DE3) pLysS, Ni-NTA purified

[2] = target: T2, LOC100003999 (zebrafish EEVS, DrEEVS) (Danio rerio, UniProt A0ACD6B5C7); experiment: TLC; GC-MS of silylated product against authentic EEV (cell-free extract); details: 4 mM SH7P, 1 mM NAD+, 0.1 mM CoCl2 or ZnSO4, pH 7.5, 30 °C
T2 construct: N-terminal His6 tag (pRSET-B), codon-optimised synthetic gene, expressed in E. coli BL21 GOLD (DE3) pLysS, Ni-NTA purified

[3] = target: T3, MT-Ox (zgc:113054) (Danio rerio, UniProt A0ACM8Q6W2); experiment: product (gadusol) detection by (-)-ESI-MS; details: SAM and NAD+ present; 30 °C
T3 construct: gene wu:fd55e12; bifunctional full-length protein (N-terminal SAM methyltransferase domain, C-terminal NAD+ oxidoreductase domain), N-terminal His6 tag (pRSET-B), codon-optimised, E. coli, Ni-NTA purified
T3 sequence (A0ACM8Q6W2 1-551): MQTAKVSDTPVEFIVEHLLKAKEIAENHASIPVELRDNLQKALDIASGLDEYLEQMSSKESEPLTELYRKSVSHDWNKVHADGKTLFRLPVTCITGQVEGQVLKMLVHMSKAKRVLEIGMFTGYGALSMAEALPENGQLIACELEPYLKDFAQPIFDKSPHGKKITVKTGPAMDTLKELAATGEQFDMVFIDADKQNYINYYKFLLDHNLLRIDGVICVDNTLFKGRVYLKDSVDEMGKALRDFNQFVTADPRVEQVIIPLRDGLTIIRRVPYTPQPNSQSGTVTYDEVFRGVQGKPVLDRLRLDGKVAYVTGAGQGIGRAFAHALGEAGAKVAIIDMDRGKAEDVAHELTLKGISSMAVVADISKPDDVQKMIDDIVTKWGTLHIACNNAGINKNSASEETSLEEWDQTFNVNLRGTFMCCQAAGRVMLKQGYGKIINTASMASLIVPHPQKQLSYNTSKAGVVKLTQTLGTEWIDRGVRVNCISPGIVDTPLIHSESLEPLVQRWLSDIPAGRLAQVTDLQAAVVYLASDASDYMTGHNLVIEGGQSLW

[4] = target: T3, MT-Ox (zgc:113054); experiment: product (gadusol) detection by HPLC-UV and (-)-ESI-MS; details: methyl donor, 5 mM; NAD+ 2 mM, CoCl2 0.2 mM, phosphate pH 7.4, 30 °C
[5] = target: T2, LOC100003999 (zebrafish EEVS, DrEEVS); experiment: product detection by TLC; GC-MS with cell-free extract; details: 4 mM SH7P, 1 mM NAD+, 0.1 mM CoCl2 or ZnSO4, 20 mM Tris-HCl pH 7.5, 30 °C, 2 h

T2 sequence (A0ACD6B5C7 1-470): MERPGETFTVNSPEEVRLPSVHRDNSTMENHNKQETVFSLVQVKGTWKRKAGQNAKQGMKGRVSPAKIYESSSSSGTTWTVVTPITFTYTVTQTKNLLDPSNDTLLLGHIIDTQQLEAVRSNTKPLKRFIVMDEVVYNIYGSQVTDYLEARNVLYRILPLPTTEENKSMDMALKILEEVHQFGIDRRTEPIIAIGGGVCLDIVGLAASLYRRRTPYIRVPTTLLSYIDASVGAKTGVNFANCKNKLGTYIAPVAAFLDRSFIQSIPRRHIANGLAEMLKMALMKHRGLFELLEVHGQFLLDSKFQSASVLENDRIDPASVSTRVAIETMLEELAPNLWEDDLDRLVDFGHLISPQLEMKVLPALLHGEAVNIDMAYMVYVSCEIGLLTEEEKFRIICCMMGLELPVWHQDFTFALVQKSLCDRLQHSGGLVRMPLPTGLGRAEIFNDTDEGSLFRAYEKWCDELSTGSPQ
T1 sequence (H2K887 whole entry): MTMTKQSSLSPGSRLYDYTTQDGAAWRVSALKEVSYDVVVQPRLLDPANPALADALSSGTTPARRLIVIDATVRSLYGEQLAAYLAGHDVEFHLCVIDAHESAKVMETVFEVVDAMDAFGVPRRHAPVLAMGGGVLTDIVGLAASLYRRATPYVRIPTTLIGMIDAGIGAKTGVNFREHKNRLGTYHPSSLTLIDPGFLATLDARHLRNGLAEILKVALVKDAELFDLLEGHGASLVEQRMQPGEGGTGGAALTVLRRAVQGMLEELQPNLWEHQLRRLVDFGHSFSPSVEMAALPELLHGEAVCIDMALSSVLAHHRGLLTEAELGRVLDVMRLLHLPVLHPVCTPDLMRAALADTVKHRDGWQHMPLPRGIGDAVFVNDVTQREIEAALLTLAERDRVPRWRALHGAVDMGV

## O=C1C[C@@](O)(CO)[C@@H](O)[C@H](O)[C@@H]1O [2-epi-5-epi-valiolone]
[1]
  TLC and GC-MS of product: TLC analysis of enzymatic products of purified ValA and purified LOC100003999
[2]
  TLC; GC-MS of silylated product against authentic EEV (cell-free extract): confirmed by thin-layer chromatography (TLC) and GC-MS to be EEV
[3]
  product (gadusol) detection by (-)-ESI-MS: Synthetic EEV incubated with purified MT-Ox

## C[S+](CC[C@H](N)C(=O)O)C[C@H]1O[C@@H](n2cnc3c(N)ncnc32)[C@H](O)[C@@H]1O (stereo partly drawn) [S-adenosylmethionine]
[4]
  product (gadusol) detection by HPLC-UV and (-)-ESI-MS: incubated with EEV in the presence of SAM and NAD^+

## O=P(O)(O)OC[C@@H](O)[C@H]1OC(O)(CO)[C@@H](O)[C@@H]1O (stereo partly drawn) [sedoheptulose 7-phosphate]
[5]
  product detection by TLC; GC-MS with cell-free extract: Incubation of the recombinant protein with SH7P gave a product
[1]
  TLC and GC-MS of product: ValA (instead of LOC100003999) was used as a positive control
